Values joined by “and” are separate entries in the source; they are usually repeats but may differ in a detail not shown here. Equal entries are not always repeated.
Experiments:
[1] = DPPH radical scavenging ability (antioxidant power), absorbance at 520 nm; assay type: biochemical; conditions: for Antioxidant power, Average: average of three measurements, 30 min; for Antioxidant power: single measurements (Once, Two times, Three times), 0.5 mM DPPH, room temperature, 30 minutes
Method: The DPPH radical expresses a dark purple color. The DPPH radical is reduced by the antioxidant effective ingredient, and the dark purple color is discolored. The performance of the antioxidant effective ingredient can be measured using such characteristics.
The 3HP aqueous solution obtained from Preparation Example 1 was prepared at five different concentrations (0 wt.%, 1 wt.%, 5 wt.%, 10 wt.%, 70 wt.%), 50 µℓ of each 3HP aqueous solution and 150 µℓ of methanol were dispensed into a 96-well plate and reacted at room temperature for 30 minutes. The absorbance (ODcontrol group, wavelength 520 nm) was repeatedly measured three times.
A DPPH aqueous solution containing 0.5 mM DPPH (free radical, 95%, Alfa Aesar) was prepared. 50 µℓ of methanol and 150 µℓ of the DPPH aqueous solution were dispensed into a 96-well plate and reacted at room temperature for 30 minutes. The absorbance (ODnegative control group, wavelength 520 nm) was repeatedly measured three times.
A DPPH aqueous solution containing 0.5 mM DPPH (free radical, 95%, Alfa Aesar) was prepared. The 3HP aqueous solution obtained from Preparation Example 1 was prepared at five different concentrations (0 wt.%, 1 wt.%, 5 wt.%, 10 wt.%, 70 wt.%), and 50 µℓ of each 3HP aqueous solution and 150 µℓ of the DPPH aqueous solution were dispensed into a 96-well plate and reacted at room temperature for 30 minutes. The absorbance (ODexperimental group, wavelength 520 nm) was repeatedly measured three times.
The absorbance at a wavelength of 520 nm was measured using a micro reader.
The DPPH radical scavenging ability (antioxidant power) of 3HP was calculated according to the following Equation 1, and the results are shown in Tables below. [formula]

[2] = test system: human skin tissues; experiment: Skin tissue cell stability experiment (explant tissue culture, HE staining); assay type: cell-based; conditions: 3HP applied at concentrations of 1%, 5%, and 10%, tissues obtained 24 hours after application, FIG. 1
Method: The human skin tissues provided for research purposes (IRB No. 4-2023-0054; Institutional Review Board, Severance Medical Center, Yonsei University College of Medicine) was defatted, and washed several times with PBS (phosphate buffered saline; Lonza) to remove residual impurities. The skin tissues were prepared into a size of 1 cm × 1 cm for each test group, and the test composition was applied to the prepared skin tissues, and PBS was applied to the negative control. The skin tissues in which the absorption of the test composition has been completed were cultured in a special medium at 37°C, 5% CO2.
Tissues obtained 24 hours after application of the test composition were fixed with 10% formalin, and then paraffin blocks and paraffin-embedded slides were prepared. The deparaffinized tissues were stained for nuclei with hematoxylin (S3309; dako) solution, and then washed in running water. The cytoplasm was stained with eosin (318906; sigma) solution, and then the tissues were completely dehydrated through washing process and fixed using a mounting solution. The epidermis and papillary dermis of the fixed tissues were photographed at 400x magnification using an optical microscope (BX43F; OLYMPUS).

O=C(O)CCO [Example 3HP, 3-hydroxypropionic acid]
Antioxidant power, Average ([1]; 3HP treated concentration 1 %): 0.904%
Antioxidant power ([1]; 3HP treated concentration 1 %): 0.850% and 1.042% and 0.819%
Antioxidant power, Average ([1]; 3HP treated concentration 5%): 2.474%
Antioxidant power ([1]; 3HP treated concentration 5%): 2.452% and 2.552% and 2.419%
Antioxidant power, Average ([1]; 3HP treated concentration 10 %): 5.175%
Antioxidant power ([1]; 3HP treated concentration 10 %): 5.209% and 5.205% and 5.111%
Antioxidant power, Average ([1]; 3HP treated concentration 70 %): 21.011%
Antioxidant power ([1]; 3HP treated concentration 70 %): 20.888% and 21.142% and 21.002%
DPPH radical scavenging ability ([1]; under the treatment concentrations tested (1, 5, 10, 70 wt.%), result in words): significant DPPH radical scavenging ability was exhibited
damage to the epidermis and dermis or separation between tissues [2]: no damage to the epidermis and dermis or separation between tissues were observed

Source: patent publication EP4684782A1, “COSMETIC COMPOSITION FOR ANTIOXIDATION” (LG Chem, Ltd., priority 2023, dated 2025)
